Results as given in patent publication US20230406859A1, “METHOTREXATE ANALOGS AND METHODS OF USE” (The United States of America, as represented by the …, priority 2020, published 2023).
Like-named read-outs stand apart in the source and are kept apart here.

Experiments:
Type in all cases: cell-based
[1] = molecular target: T1, DHFR (Homo sapiens, UniProt P00374); conditions: HBL1 cells, Western blot
T1 construct: Western blot detection of DHFR levels after treatment of HBL1 cells for 16 h; endogenous in cells; host or cells: HBL1 lymphoma cell line
T1 sequence (P00374 1-187): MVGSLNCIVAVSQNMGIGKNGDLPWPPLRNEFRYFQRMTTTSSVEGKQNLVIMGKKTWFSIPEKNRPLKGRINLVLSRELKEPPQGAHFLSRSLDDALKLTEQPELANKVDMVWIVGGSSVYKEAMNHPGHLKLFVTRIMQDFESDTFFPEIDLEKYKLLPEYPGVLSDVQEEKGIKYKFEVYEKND
From the text: (§1) Human embryonic kidney HEK293T cells and immortalized fibroblasts were maintained in DMEM (Gibco) supplemented with 10% fetal bovine serum (Hyclone), 2 mmol/L L-glutamine, Hepes (Gibco), and 100 U/mL penicillin/streptomycin (Invitrogen). The lymphoma cell line HBL1 was maintained in RPMI (Life Technology) supplemented with 5% fetal bovine serum (Hyclone), 2 mmol/L 1-glutamine, Hepes (Gibco), and 100 U/mL penicillin/streptomycin (Invitrogen).
Western blotting: Cells at confluence from 12-well plate treatments were washed with PBS and lysed in 75 μL/well NP40 lysis buffer (Cell Signaling), subjected to agitation and centrifugation. Approximately 100 μg of total protein was used per analysis. […] Blots were first incubated with 1:2000 dilution of anti-human DHFR antibody (Abcam, ab124814, host rabbit) for 16 h at 4° C. with shaking, washed 3× with TBS-T and incubated with 1:2000 dilution of anti-human β-actin primary antibody (Cell Signaling, host mouse) for 1 h at ambient temperature with shaking. Blots were then washed 3× with TBS-T and incubated with 1:5000 HRP secondary antibody (Novex, anti-Rabbit IgG raised in Goat, 1 mg/ml) for 1 h at ambient temperature, then washed with 3×TBS-T and developed with Pierce ECL Dura reagent for 5 min. Immunoreactive bands were imaged on a ChemiDoc Imaging System (Bio-Rad) with 20 s chemiluminescence exposure. The molecular weight marker ladder was imaged with colorimetric auto-exposure, and both images merged.

[2] = system: HBL1 cells; assay: CellTiter-Glo assay of cellular ATP levels in HBL1 cells (16 h)
Experimental: Cell Culture Methods: Cells (HBL1, immortalized fibroblasts from a healthy donor, or 293T) were seeded at the numbers indicated in a 12-well plate in 500 ul. […] Human embryonic kidney HEK293T cells and immortalized fibroblasts were maintained in DMEM (Gibco) supplemented with 10% fetal bovine serum (Hyclone), 2 mmol/L L-glutamine, Hepes (Gibco), and 100 U/mL penicillin/streptomycin (Invitrogen). The lymphoma cell line HBL1 was maintained in RPMI (Life Technology) supplemented with 5% fetal bovine serum (Hyclone), 2 mmol/L 1-glutamine, Hepes (Gibco), and 100 U/mL penicillin/streptomycin (Invitrogen). Cells were cultured in incubators maintained at 37° C., with 5% CO2 and 85% humidity.
Cell-Titer-Glo viability assays: Five μL of cells (2500 cells) from the 12-well plate culture were plated into white 1536-well plates (Greiner, Monroe, NC, 789173-F) in 6 replicates. CellTiter-Glo Luminescent Cell Viability Assay (CTG) (Promega, G7572), 2.5 μL/well reagent was added with a BioRAPTR FRD (Beckman Coulter, Sykesville, MD), plates were incubated in the dark at ambient temperature for 10 min, and luminescence measured with a ViewLux 1430 Ultra HTS (Perkin Elmer, Waltham, MA).

[3] = molecular target: T2, human DHFR-HiBiT fusion protein (Homo sapiens, UniProt P00374); assay: DHFR-HiBiT assay (high-throughput DHFR abundance) in HBL1 cells; conditions: HBL1, 24 h, read-out: efficacy (%)
T2 construct: expressed in transfected cells; host or cells: HBL1 cells retrovirally infected with pBMN-Ires-Lyt-2 carrying DHFR-HiBiT
T2 sequence (P00374 with tags, fused parts or gaps): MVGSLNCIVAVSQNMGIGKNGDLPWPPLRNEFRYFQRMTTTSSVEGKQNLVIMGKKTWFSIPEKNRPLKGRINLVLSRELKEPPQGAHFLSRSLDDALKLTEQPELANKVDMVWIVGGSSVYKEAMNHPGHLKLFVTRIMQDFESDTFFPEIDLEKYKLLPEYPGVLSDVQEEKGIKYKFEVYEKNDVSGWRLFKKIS
From the text: The human DHFR-HiBiT construct was synthetized (Bio Basic) and cloned into the retroviral vector pBMN-Ires-Lyt-2 (provided by G. Nolan, Stanford University, Stanford, CA) which expresses the coding region of mouse CD8a (Lyt-2) using the restriction sites BamHI/XhoI. All constructs were sequenced to validate authenticity. Infected cells were positively selected based on murine CD8a expression using magnetic beads (Miltenyi Biotech).
as §1, with “Cell culture: Human” for “Human”, “cells” for “cells and immortalized fibroblasts”, “1-glutamine, HEPES (Gibco)” for “L-glutamine, Hepes (Gibco),”, “were” for “was”, “L-glutamine, HEPES (Gibco)” for “1-glutamine, Hepes (Gibco),”
Transfection and retroviral infections: Transfections were performed using Lipofectamine 2000 (Invitrogen) according to the manufacturer's protocol. For retroviral infections, viruses were produced in HEK293T cells and used to infect HBL1 cell line. […] Supernatants containing the retrovirus were collected and filtered at 48- and 72-hours post-transfection. HBL1 cells were centrifuged and then resuspended with the retroviral supernatant with 8 μg/ml of polybrene. The cells were spin-infected twice on consecutive days at 2,500 rpm, at RT, for 90 minutes.
Lytic HiBiT Detection: Cells were plated in solid white 1536-well tissue culture plates (Greiner), at the concentration of 2000 cells/well. After treatment, an equal volume of Nano-Glo HiBiT Lytic Reagent (Promega) containing the substrate furimazine and Large BiT (LgBiT) was added to the cells according to the manufacturer's protocol. Cells were incubated for 10 min at room temperature, and luminescence was measured using a Perkin Elmer ViewLux microplate imager with 30 seconds of exposure time.

[4] = system: HBL1 cell line; assay: CellTiter-Glo cell viability (cytotox), HBL1 cell line, 72 hours; conditions: HBL1 cell line, CellTiter-Glo; unit inferred
[5] = molecular target: T3, DHFR (Homo sapiens, UniProt P00374); assay: Western blot for DHFR in MTX-resistant HBL1 cell line; parameters: dose or concentration left out as unconfirmed
T3 construct: endogenous in cells
T3 sequence (P00374 2-187): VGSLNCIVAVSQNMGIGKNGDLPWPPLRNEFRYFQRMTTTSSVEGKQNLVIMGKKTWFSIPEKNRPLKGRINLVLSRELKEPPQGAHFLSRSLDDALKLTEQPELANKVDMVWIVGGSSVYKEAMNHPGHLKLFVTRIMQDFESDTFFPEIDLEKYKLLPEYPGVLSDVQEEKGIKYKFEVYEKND
Experimental: Protein expression analysis: Cells were collected and homogenized in lysis buffer (20 mM Tris-HCl (pH 7.5), 150 mM NaCl, 1 mM Na2EDTA, 1 mM EGTA 1% Triton, 2.5 mM sodium pyrophosphate) with freshly added protease inhibitors (50 mM HEPES, pH 7.6, 150 mM NaCl, 20 mM EDTA, 10 mM sodium orthovanadate (Vanadate, Na3VO4), 100 mM NaF, 2% Triton X-100, 10 μg/ml aprotinin, 10 μg/ml leupeptin, 0.5 mm phenylmethyl sulfonyl fluoride). […] The membrane was immunoblotted with rabbit polyclonal anti-DHFR or mouse anti-β-actin antibodies. The immune complexes were detected by horseradish peroxidase-conjugated secondary antibodies (Thermo Scientific) and developed using a ChemiDoc MP Imager (Bio-Rad). To detect HiBiT-tagged proteins, the membrane was rinsed for 1 h in TBST and then incubated in LgBiT/buffer solution overnight. Nano-Glo® Luciferase Assay Substrate furimazine was added and incubated 5 minutes, and the blot was exposed on the imager.

[6] = molecular target: thymidylate synthase (TS) (Homo sapiens, UniProt P04818); assay: Western blot of thymidylate synthase levels in HBL1 cells; parameters: Western blot detection of folate-cofactor dependent enzyme levels after treatment of HBL1 cells; endogenous in cells; host or cells: HBL1 lymphoma cell line; conditions: 1 μM, 16 h
Chain of thymidylate synthase (TS) (P04818 2-313 limits assumed): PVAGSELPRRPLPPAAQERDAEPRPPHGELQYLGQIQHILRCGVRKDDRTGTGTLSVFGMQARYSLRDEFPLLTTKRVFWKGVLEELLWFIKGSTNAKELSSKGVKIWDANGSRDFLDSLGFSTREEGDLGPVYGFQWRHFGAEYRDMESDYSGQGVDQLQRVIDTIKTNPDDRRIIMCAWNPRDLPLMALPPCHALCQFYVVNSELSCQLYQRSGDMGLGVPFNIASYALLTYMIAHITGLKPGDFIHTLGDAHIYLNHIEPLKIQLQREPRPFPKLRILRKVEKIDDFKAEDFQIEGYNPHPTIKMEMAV

CN(Cc1cnc2nc(N)nc(N)c2n1)c1ccc(C(=O)N[C@@H](CCC(=O)NCCOCCOCCOCCNC(=O)COc2cccc3c2C(=O)N(C2CCC(=O)NC2=O)C3=O)C(=O)O)cc1 (stereo partly drawn) [NCGC00685965, (19S)-19-(4-(((2,4-diaminopteridin-6-yl)methyl)(methyl)amino)benzamido)-1-((2-(2,6-dioxopiperidin-3-yl)-1,3-dioxoisoindolin-4-yl)oxy)-2,16-dioxo-6,9,12-trioxa-3,15-diazaicosan-20-oic acid]
effect on DHFR protein levels [1]: remained capable of depleting cellular DHFR
effect on DHFR protein levels ([1]; listed as MTX-PROTAC 9): robust DHFR depletion
effect on cellular ATP levels (acute cellular toxicity) [2]: did not significantly alter ATP levels even up to 1 μM
Dmax [3]: 64.2%
IC50 [4]: 5.91 µM
depletion of cellular DHFR [5]: remained capable of depleting cellular DHFR
effect on TS protein level [6]: slight increase in TS
